Literature values as cited in patent publication US20230130225A1, “METHOD OF TREATING AMYOTROPHIC LATERAL SCLEROSIS WITH MYELOPEROXIDASE INHIBITOR” (Biohaven Therapeutics Ltd., priority 2020, published 2023).
Read-outs that look alike come from different tables or passages of the source.

Columns and labels:
[1] = participants with Parkinson's disease and MSA, dosages of up to 600 mg BID for 8-12 weeks
TSPO = conditions: 600 mg BID, Phase 2 studies
MPO = biological target: T1, MPO (Homo sapiens, UniProt P05164); conditions: 600 mg BID, Phase 2 studies
T1 construct: from tissue; host or cells: plasma of clinical study participants

[2] = healthy subjects, multiple dosages of up to 900 mg BID
[3] = subjects with MSA, 12 weeks, 600 mg BID

T1 sequence (P05164 279-745 limits assumed): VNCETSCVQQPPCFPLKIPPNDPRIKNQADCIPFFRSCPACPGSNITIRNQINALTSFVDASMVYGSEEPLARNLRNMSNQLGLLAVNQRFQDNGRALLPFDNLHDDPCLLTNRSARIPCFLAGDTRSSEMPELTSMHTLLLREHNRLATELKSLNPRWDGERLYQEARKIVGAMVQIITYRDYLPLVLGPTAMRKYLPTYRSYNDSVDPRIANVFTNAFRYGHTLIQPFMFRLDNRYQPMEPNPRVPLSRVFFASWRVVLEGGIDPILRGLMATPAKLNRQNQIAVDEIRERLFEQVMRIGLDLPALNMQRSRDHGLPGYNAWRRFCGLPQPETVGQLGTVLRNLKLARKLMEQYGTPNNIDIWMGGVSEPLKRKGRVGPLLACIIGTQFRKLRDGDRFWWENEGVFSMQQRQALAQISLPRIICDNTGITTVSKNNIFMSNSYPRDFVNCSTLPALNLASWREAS
T1 sequence (P05164 165-273 limits assumed): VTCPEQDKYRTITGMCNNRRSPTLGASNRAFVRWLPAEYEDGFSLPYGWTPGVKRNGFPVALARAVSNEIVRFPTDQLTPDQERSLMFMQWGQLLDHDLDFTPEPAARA

- TSPO binding on brain PET imaging (microglial activation/neuroinflammation) (TSPO): reduced
- MPO activity in plasma (MPO): decreased
Structure (SMILES): CC(C)OCCn1c(=S)[nH]c(=O)c2[nH]ccc21 [verdiperstat, 1-(2-isopropoxyethyl)-2-thioxo-1,2,3,5-tetrahydro-pyrrolo[3,2-d]pyrimidin-4-one]
- safety and tolerability [1]: generally safe and well tolerated
- safety and tolerability [2]: generally safe and well tolerated
- trends on clinical efficacy measures [3]: favorable, dose-dependent trends
